{"source": "patent US20120129869A1", "about": "“PHOSPHORYLATION AND MUTATIONS OF ANAPLASTIC LYMPHOMA KINASE AS A DIAGNOSTIC AND THERAPEUTIC TARGET IN LUNG CANCER” (Academia Sinica, priority 2010, published 2012)", "key": {"[1]": {"test_system": "H1299 transfectants of wild type, H694R and E1384K ALKs", "experiment": "WST-1 cell growth, wild type and mutated ALK transfectants together", "type": "cell-based", "settings": "both wild type and mutated ALK transfectants", "from_the_text": "The full-length cDNA of ALK-wild type was inserted into pCDNA3.0 vector by restriction sites Hind III and Not I. All ALK mutations were generated from the template of pCDNA3.0-ALK-wild type full-length construct using site-directed mutagenesis. H1299 and NIH3T3 cells were maintained in Dulbecco's Modified Eagle Medium (DMEM) medium supplemented with 10% Fetal Bovine Serum (FBS) and streptomycin. The H1299 and NIH3T3 cells were transfected with the expression constructs by Lipofectamine 2000 (Invitrogen) and further selected by G418 to establish mixtures of ALK-expressed transfectants.\nFor analysis of cell growth, a total of 1×10^3 cells/well was seeded in 96-well plate. After different culturing time, 10 μl/well WST-1 reagent (Roche Diagnostics) was added for reaction at 37° C. for 50 minutes. The absorbance at 450 nm was measured."}, "phosphorylated-Y1604 ALK [2]": {"test_system": "phosphorylated-Y1604 ALK", "experiment": "Western blotting of phosphorylated-Y1604 ALK expression in H1299 transfectants", "type": "cell-based", "settings": "both wild type and mutated ALK transfectants", "from_the_text": "For Western blotting analysis, the membranes were probed with specific antibodies against HA (Covance), phospho-tyrosine (4G10; Upstate Biotechnology), STAT3 (sc-482; Santa Cruz) and α-tubulin (DM1A; NeoMarkers). The phospho-ALK (Tyr1604), phospho-Akt ([…]), phospho-STAT3 (Tyr705), phospho-ERK (Thr202/Tyr204), Akt and ERK antibodies were purchased from Cell Signaling. For IHC staining assay, the tissue sections were stained with specific antibodies against phospho-ALK (pY1604; Epitomics), ALK (4204-1; Epitomics), phospho-STAT3 (Tyr705, D3A7; Cell Signaling) and phospho-Akt (Ser473, 736E11; Cell Signaling). The ALK inhibitor WHI-P154 was purchased from Calbiochem.\nCells were lysed in RIPA buffer (200 mM Tris, 150 mM NaCl, 1 mM EDTA, 1% NP40, 1 mM PMSF, 1 mM DTT) with addition of 1× phosphatase inhibitor cocktail set II from Calbiochem and 1× cocktails of protease inhibitor from Roche. The protein concentration was measured by BCA protein assay kit (Pierce Chemical). The equal amounts of cell lysates were subjected to SDS-PAGE, transferred to NC membranes, and then probed with specific antibody for protein detection. For co-immunoprecipitation assay, the equal amounts of cell lysates were firstly incubated with anti-HA antibody for one hour and subsequently reacted with protein A/G for overnight. […]"}, "H1299 cells [3]": {"test_system": "H1299 cells", "experiment": "Anchorage-independent growth (soft agar) assay", "type": "cell-based", "settings": "compared with DMSO control", "protocol": "A total of 2×10^4 H1299 or NIH3T3 transfectants were mixed in a final 0.3% agarose and plated onto the 60-mm plate containing 0.5% agarose. These cells were further cultured in 5% CO2 incubator at 37° C. for one month. The plates were dehydrated at room temperature and then stained with 0.3% crystal violet for visualizing colonies. The colony numbers were counted by using Image-pro plus analysis program."}, "H1299 cells [4]": {"test_system": "H1299 cells", "experiment": "Boyden chamber cell migration assay", "type": "cell-based", "settings": "compared with DMSO control", "protocol": "The cell migration capability was examined by Boyden chamber assay. Briefly, a total of 2×10^4 H1299 or NIH3T3 transfectants were inoculated into the cell migration insert (BD Biosciences) containing 350 μl DMEM medium alone, and the insert was placed into the well containing 750 μl complete DMEM medium in 24-well plate. After 24 hours incubation, the migrated cells were fixed with 100% methanol and stained by Giemsa's solution (Merck). The numbers of migrated cells were counted by using Image-pro plus analysis program."}, "[5]": {"test_system": "H694R and E1384K ALK H1299 transfectants xenograft", "experiment": "In vivo xenograft tumor formation assay", "set-up": "species or system BALB/c NU mice", "settings": "ALK mutations-bearing mice, 1 mg/kg/day intravenously, versus DMSO control", "protocol": "(§1) Animal protocol was approved by the Institutional Animal Safety Committee. A total of 1×10^6 ALK-wild type or mutants expressed H1299 transfectants were mixed with matrigel (BD) and then subcutaneously injected into the right flank of four-week-old BALB/c NU mice. For WHI-P154 treatments, the nude mice were randomly divided into two groups when the mean tumor volume reached 20-50 mm^3. DMSO or WHI-P154 (1 mg/kg/day) was intravenously injected daily. The tumor volumes were measured weekly and calculated according to the formula: volume=length×width^2×0.52."}, "phosphorylated-Y1604 ALK [6]": {"test_system": "phosphorylated-Y1604 ALK", "experiment": "IHC staining of phosphorylated-Y1604 ALK in xenograft tumor sections", "type": "in vivo, nude mice", "settings": "H694R and E1384K xenograft tumor sections, versus DMSO control", "protocol": "Human lung cancer tissue arrays containing 37 normal lung and 263 lung cancer sections from Pantomics (Luc961, Luc962, Luc1501, Luc1502 and Luc1503) were deparaffinized and the frozen tumor sections from the xenograft nude mice were fixed in 3% formaldehyde solution. All sections were treated in 3% H2O2 buffer for 30 minutes to inactivate the endogenous peroxidase activities, and then treated with 0.01M sodium citrate buffer for antigen retrieval. After blocking with 10% normal goat serum, these sections were reacted with specific antibodies at 4° C. for overnight. Subsequently, these sections were incubated with Super Picture HRP polymer conjugate secondary antibody (Zymed Laboratories), and then stained with DAB chromagen (Zymed Laboratories). These sections were also stained with Hematoxylin (DAKO).\nas §1"}, "[7]": {"test_system": "GFP-labeled H1299 transfectants of H694R and E1384K ALK", "experiment": "In vivo metastasis assay (tail vein injected lung metastasis model)", "set-up": "species or system nude mice", "settings": "1 mg/kg/day intravenously", "protocol": "In order to examine the in vivo metastatic capability, ALK wild type or mutations expressed H1299 transfectants were infected with GFP-lentivirus to generate the GFP fluorescence-labeled cells. A total of 2×10^6 cells were injected into nude mice through tail vein for measuring lung metastasis. For investigation of the tumor suppressive effects using ALK inhibitor, the nude mice were intravenously injected daily with WHI-P154 (1 mg/kg/day) after cell inoculation for 14 days. The survival rate was recorded daily and scarified the rest mice after 105 days. The pulmonary metastasis of GFP-labeled H1299 transfectants were visualized by fluorescence stereomicroscope."}}}
{"smiles": "COc1cc2ncnc(Nc3ccc(O)c(Br)c3)c2cc1OC", "note": "[WHI-P154]", "values": [{"measurement": "inhibition of cell growth", "setting": "[1]", "result": "dose-dependent inhibition"}, {"measurement": "inhibition of expression of phosphorylated-Y1604 ALK", "setting": "phosphorylated-Y1604 ALK [2]", "result": "dose-dependent inhibition"}, {"measurement": "inhibition of soft agar growth", "setting": "H1299 cells [3]", "result": "profound inhibition"}, {"measurement": "inhibition of cell migration", "setting": "H1299 cells [4]", "result": "profound inhibition"}, {"measurement": "tumor growth", "setting": "[5]", "result": "significant reduction of tumor growth"}, {"measurement": "expression of phosphorylated-Y1604 ALK in tumor sections", "setting": "phosphorylated-Y1604 ALK [6]", "result": "significant lower expression of phosphorylated-Y1604 ALK"}, {"measurement": "survival", "setting": "[7]; mice with H694R and E1384K mutations", "result": "survive as long as control mice"}, {"measurement": "lung metastasis", "setting": "[7]; mutation-bearing mice", "result": "significantly suppresses lung metastasis"}]}
